Results taken from patent EP3153515A1, “COMPOUNDS FOR INHIBITING HEPATITIS C VIRUS, PHARMACEUTICAL COMPOSITIONS AND USES THEREOF” (priority 2014, dated 2015).

What follows are compounds tested on HCV NS5A replicon GT-1a (assay: HCV NS5A replicon anti-viral activity (EC50), dual-reporter Renilla luciferase, GT-1a). Settings: Hepatitis C virus, GT1A, read-out: NS5A Inhibitory Activity (EC50 of GT-1a subtype inhibition).
Assay type: cell-based
Source text: The autonomous replication level of HCV in liver cells in vitro is very low, and the only animal that can be infected by HCV is chimpanzee, therefore there is no appropriate animal model currently available for preclinical pharmacodynamic study. Some researchers have transplanted human liver tissue infected with HCV in vitro into immune deficient mice to establish an in vivo mice model, but these mice are hard to raise and the model is unstable and short of normal immunologic reaction. Moreover, the model has significant difference with the pathogenic process of hepatitis C, therefore, it has not been used for animal model to assess the action of anti-HCV medicine yet. The progress of the development of anti-viral drugs for the treatment of HCV infection had been very slow because the pathogenic mechanism and life cycle of HCV were unclear before 1999 due to the lack of cell culture system for effective multiplication of HCV. But researchers managed to achieve a breakthrough in 1999 after numerous attempts. An effective cell culture model-replicon system in which HCV is capable of autonomous replication in transfected human hepatic carcinoma cell line Huh-7 had been established in that year on the basis of subgenomic HCV RNA built with genetic engineering.
The above-mentioned cell culture model-replicon system which has been widely accepted in the industry is used in this invention for ex vivo experiments and subsequent assessment of drugs based on the experiment results.
The therapeutic effect of the compounds of this invention on HCV infection can be preliminarily assessed through the following preclinical in vitro inhibitory action test and can be further confirmed in clinical trials. Other methods used in the invention are also quite familiar to professionals in this field with ordinary technical knowledge. Method for testing the anti-viral activity(EC50) in HCV NS5A replicon system: • The viral replication level in infected cells was determined by testing Renilla luciferase with the newly established dual-reporter gene replicon system. There was a good linear relation between the expression level of the reporter gene and the HCV RNA replication level and viral protein expression level. The anti-viral activity was determined for 3 replicates in 3 replicate cells at five(5) 1:2 diluted concentration gradients, with 1 to 2 positive controls. The EC50 of the compounds was calculated in the end.
The compounds of the invention, or their stereoisomers, tautomers, esterified or amidated prodrugs, or pharmaceutically acceptable salts and mixtures have been subjected to test to determined their therapeutic effects in the treatment of HCV infection. […] Moreover, the results of 6a-6ep(Ia), 6fa-6gq(Ib) and reference compounds Ref-1(BMS-790052), Ref-2(GS5885), Ref-3 in HCV-NS5 inhibition test reveal that the cyclopentanyl/hexamethyleneamino radical containing linear polypeptide compounds 6a-6ep, 6fa-6gq and reference compounds Ref-1, Ref-2, Ref-3 have good HCV inhibitory results. […] The replicons GT-1a, GT-lb, GT-2a, GT-3a, GT-4a, GT-5a and GT-6a used for the test are routine replicons commercially available in this field. Table 1: HCV NS5A replicon inhibitory activity test results of compounds (6a-6gq) of the invention

| SMILES | EC50 [nM] |
| --- | --- |
| COC(=O)N[C@H](C(=O)N1CC2(CC2)C[C@H]1c1nc(-c2ccc3c(c2)C(F)(F)c2cc(-c4ccc5[nH]c([C@@H]6[C@H]7CC[C@H](C7)N6C(=O)[C@@H](NC(=O)OC)C(C)C)nc5c4)ccc2-3)c[nH]1)C(C)C [Ref-2, GS5885, reference compound] | 0.001 to 0.999 |

Same assay, conditions: Hepatitis C virus, GT1A; GT-1a replicon; read-out: NS5A Inhibitory Activity (EC50 of GT-1a subtype inhibition)

| SMILES | EC50 [nM] |
| --- | --- |
| COC(=O)N[C@H](C(=O)N1CC=C[C@H]1c1nc2ccc(-c3csc4c(-c5cnc([C@@H]6CCCN6C(=O)[C@H](NC(=O)OC)c6ccccc6)[nH]5)csc34)cc2[nH]1)C(C)C [6gn] | 0.001 to 0.999 |
| COC(=O)N[C@H](C(=O)N1CC=C[C@H]1c1ncc(-c2ccc(-c3ccc(-c4cnc([C@@H]5CC(O)CN5C(=O)[C@@H](NC(=O)OC)C(C)C)[nH]4)cc3)cc2)[nH]1)C(C)C (stereo partly drawn) [6dq] | 0.001 to 0.999 |
| COC(=O)N[C@H](C(=O)N1CCC[C@H]1c1ncc(-c2ccc(-c3cc4sc(-c5cnc([C@@H]6CN(C(=O)N7Cc8cc9c(cc8C7)OCO9)CN6C(=O)[C@@H](NC(=O)OC)C(C)C)[nH]5)cc4s3)cc2)[nH]1)C(C)C [6bv] | 0.001 to 0.999 |
| CC(C)[C@H](NC(=O)OC1CCCC1)C(=O)N1CC=C[C@H]1c1ncc(-c2ccc(-c3ccc(-c4c[nH]c([C@@H]5CCCN5C(=O)[C@@H](NC(=O)OC5CCCC5)C(C)C)n4)cc3)cc2)[nH]1 [6bg] | > 50 |
| COC(=O)N[C@H](C(=O)N1CCC[C@H]1c1nc2ccc(-c3csc4c(-c5ccc(-c6ccc7nc([C@@H]8C=CCN8C(=O)[C@H](NC(=O)OC)c8ccccc8)[nH]c7c6)cc5)csc34)cc2[nH]1)C(C)C [6gq] | 0.001 to 0.999 |
| COC(=O)N[C@H](C(=O)N1CCC[C@H]1c1nc(-c2ccc(-c3ccc(-c4cnc([C@@H]5C=CCN5C(=O)[C@@H](NC(=O)OC(C)(C)C)C(C)C)[nH]4)cc3)cc2)c[nH]1)C(C)C [6bc] | 1 to 49.9 |
| COC(=O)N[C@@H](C(=O)N1CCC[C@H]1c1ncc(-c2ccc(-c3cc4sc(-c5cnc([C@@H]6CCCN6C(=O)[C@H](NC(=O)OC)c6ccccc6)[nH]5)cc4s3)cc2)[nH]1)c1ccccc1 [Ref-3, reference compound] | 0.001 to 0.999 |
| COC(=O)N[C@H](C(=O)N1CC=C[C@H]1c1nc(-c2ccc(-c3ccc(-c4c[nH]c([C@@H]5CCCN5C(=O)C5(NC(=O)OC)CCCCC5)n4)cc3)cc2)c[nH]1)C(C)C [6bj] | 0.001 to 0.999 |
| COC(=O)N[C@H](C(=O)N1CCCC[C@H]1c1nc(-c2ccc(-c3ccc(-c4c[nH]c([C@@H]5COCCN5C(=O)[C@@H](NC(=O)OC)C(C)C)n4)cc3)cc2)c[nH]1)C(C)C [6aj] | 0.001 to 0.999 |
| COC(=O)N[C@H](C(=O)N1CCC[C@H]1c1nc2ccc(-c3csc4c(-c5ccc(-c6cnc([C@@H]7C=CCN7C(=O)[C@H](NC(=O)OC)c7ccc(C)cc7)[nH]6)cc5)csc34)cc2[nH]1)C(C)C [6fw] | 0.001 to 0.999 |
| COC(=O)N[C@H](C(=O)N1CCCC[C@H]1c1nc(-c2ccc(-c3ccc(-c4c[nH]c([C@@H]5CCCN5C(=O)[C@@H](NC(=O)OC)C(C)C)n4)cc3)cc2)c[nH]1)C(C)C [6ab] | 0.001 to 0.999 |
| COC(=O)N[C@H](C(=O)N1CC=C[C@H]1c1ncc(-c2ccc(-c3cc4sc(-c5cnc([C@@H]6CCCN6C(=O)[C@H](NC(=O)OC)c6ccccc6)[nH]5)cc4o3)cc2)[nH]1)C(C)C [6fq] | 0.001 to 0.999 |
| CC(C)[C@H](NC(=O)OC1CCCC1)C(=O)N1CC=C[C@H]1c1nc(-c2ccc(-c3ccc(-c4cnc([C@@H]5C=CCN5C(=O)[C@@H](NC(=O)OC5CCCC5)C(C)C)[nH]4)cc3)cc2)c[nH]1 [6bf] | > 50 |
| COC(=O)N[C@@H](C(=O)N1CC=C[C@H]1c1ncc(-c2ccc(-c3cc4sc(-c5cnc([C@@H]6CCCN6C(=O)[C@H](NC(=O)OC)c6ccccc6)[nH]5)cc4o3)cc2)[nH]1)c1ccccc1 [6fr] | 0.001 to 0.999 |
| COC(=O)N[C@H](C(=O)N1CC=C[C@H]1c1nc(-c2ccc(-c3ccc(-c4c[nH]c([C@@H]5COCCN5C(=O)[C@@H](NC(=O)OC)C(C)C)n4)cc3)cc2)c[nH]1)C(C)C [6bm] | 0.001 to 0.999 |
| CN(C)C(=O)NC(C(=O)N1CC=C[C@H]1c1ncc(-c2ccc(-c3ccc(-c4cnc([C@@H]5CCCN5C(=O)C(NC(=O)N(C)C)c5ccccc5)[nH]4)cc3)cc2)[nH]1)c1ccccc1 (stereo partly drawn) [6ce] | 0.001 to 0.999 |
| COC(=O)N[C@H](C(=O)N1CC=C[C@H]1c1nc2ccc(-c3cc4sc(-c5cnc([C@@H]6CCCN6C(=O)[C@@H](NC(=O)OC)C(C)C)[nH]5)cc4s3)cc2[nH]1)C(C)C [6gh] | 0.001 to 0.999 |
| COC(=O)N[C@H](C(=O)N1CCC[C@H]1c1ncc(-c2ccc(-c3ccc(-c4cnc([C@@H]5C=CCN5C(=O)[C@@H](NC(=O)OC)C5CCCCC5)[nH]4)cc3)cc2)[nH]1)C(C)C [6di] | 0.001 to 0.999 |
| COC(=O)N[C@H](C(=O)N1CCC[C@H]1c1nc(-c2ccc(-c3ccc(-c4cnc([C@@H]5CC6(CN5C(=O)[C@@H](NC(=O)OC)C(C)C)OCCO6)[nH]4)cc3)cc2)c[nH]1)C(C)C [6ds] | 0.001 to 0.999 |
| COC(=O)N[C@H](C(=O)N1CCCC[C@H]1c1nc(-c2ccc(-c3ccc(-c4c[nH]c([C@@H]5C[C@H](OC(=O)N6Cc7cc8c(cc7C6)OCO8)CN5C(=O)[C@@H](NC(=O)OC)C(C)C)n4)cc3)cc2)c[nH]1)C(C)C [6ac] | 0.001 to 0.999 |
| COC(=O)NC(C(=O)N1CC=C[C@H]1c1ncc(-c2ccc(-c3ccc(-c4cnc([C@@H]5C=CCN5C(=O)C(NC(=O)OC)c5ccccc5)[nH]4)cc3)cc2)[nH]1)c1ccccc1 (stereo partly drawn) [6ca] | 0.001 to 0.999 |
| COC(=O)N[C@H](C(=O)N1CC=C[C@H]1c1ncc(-c2ccc(-c3csc4c(-c5c[nH]c([C@@H]6CCCN6C(=O)[C@@H](NC(=O)OC)C(C)C)n5)csc34)cc2)[nH]1)C(C)C [6fj] | 0.001 to 0.999 |
| COC(=O)N[C@H](C(=O)N1CCC[C@H]1c1nc2ccc(-c3csc4c(-c5ccc(-c6cnc([C@@H]7C=CCN7C(=O)[C@H](NC(=O)OC)c7ccccc7)[nH]6)c(F)c5)csc34)cc2[nH]1)C(C)C [6fu] | 0.001 to 0.999 |
| COC(=O)N[C@H](C(=O)N1CC=C[C@H]1c1nc(-c2ccc(-c3ccc(-c4cnc([C@@H]5C=CCN5C(=O)[C@@H](NC(=O)OC)C(C)C)[nH]4)cc3)cc2)c[nH]1)C(C)C [6bd] | 0.001 to 0.999 |
| COC(=O)N[C@H](C(=O)N1CC=C[C@H]1c1nc2ccc(-c3csc4c(-c5cnc([C@@H]6CCCN6C(=O)[C@@H](NC(=O)OC)C(C)C)[nH]5)csc34)cc2[nH]1)C(C)C [6gm] | 0.001 to 0.999 |
| COC(=O)N[C@H](C(=O)N1CC=C[C@H]1c1ncc(-c2ccc(-c3cccc4c(-c5cnc([C@@H]6CCCN6C(=O)[C@@H](NC(=O)OC)C(C)C)[nH]5)cccc34)cc2)[nH]1)C(C)C [6ef] | 0.001 to 0.999 |
| COC(=O)N[C@H](C(=O)N1CCC[C@H]1c1ncc(-c2ccc(-c3ccc(-c4cnc([C@@H]5C=CCN5C(=O)[C@@H](NC(=O)N(C)C)C(C)C)[nH]4)cc3)cc2)[nH]1)C(C)C [6ci] | 0.001 to 0.999 |
| COC(=O)N[C@H](C(=O)N1CC=C[C@H]1c1ncc(-c2ccc(-c3ccc(-c4cnc([C@@H]5CCCN5C(=O)[C@@H](NC(=O)N(C)C)C(C)C)[nH]4)cc3)cc2)[nH]1)C(C)C [6df] | 0.001 to 0.999 |
| CNC(=O)N[C@H](C(=O)N1CC=C[C@H]1c1ncc(-c2ccc(-c3ccc(-c4cnc([C@@H]5CCCN5C(=O)[C@@H](NC(=O)NC)C(C)C)[nH]4)cc3)cc2)[nH]1)C(C)C [6ch] | 0.001 to 0.999 |
| COC(=O)N[C@H](C(=O)N1CC=C[C@H]1c1ncc(-c2ccc(-c3ccc(-c4cnc([C@@H]5CN(S(=O)(=O)C(C)C)CN5C(=O)[C@@H](NC(=O)OC)C(C)C)[nH]4)cc3)cc2)[nH]1)C(C)C [6dd] | 0.001 to 0.999 |

Same assay, conditions: Hepatitis C virus, genotype 1a / genotype 6a, read-out: Inhibitory activity against various HCV-NS5A subtypes(EC50, GT-1a to GT-6a) GT-1a

| SMILES | EC50 [nM] |
| --- | --- |
| COC(=O)N[C@H](C(=O)N1CC2(CC2)C[C@H]1c1nc(-c2ccc3c(c2)C(F)(F)c2cc(-c4ccc5[nH]c([C@@H]6[C@H]7CC[C@H](C7)N6C(=O)[C@@H](NC(=O)OC)C(C)C)nc5c4)ccc2-3)c[nH]1)C(C)C [Ref-2, GS5885, reference compound] | 0.088 |
| COC(=O)N[C@@H](C(=O)N1CCC[C@H]1c1ncc(-c2ccc(-c3cc4sc(-c5cnc([C@@H]6CCCN6C(=O)[C@H](NC(=O)OC)c6ccccc6)[nH]5)cc4s3)cc2)[nH]1)c1ccccc1 [Ref-3, reference compound] | 0.051 |
